Non-standard residues stand in square brackets, D forms with d. Residues, ends and D or L forms follow the SMILES beside them. *: point of attachment. Boc = CC(C)(C)OC(=O)*; OBn = c1ccc(CO*)cc1; For = O=C*
How the values were obtained:
[1] = system: mice
[2] = system: mice; assay: Acute itch behaviour after injection (scratching bouts); format: in vivo, mouse
[3] = biological target: T1, mouse Mrgpra1 (Mus musculus, UniProt Q91WW5); assay: Ca2+ imaging / EC50 determination in HEK293 cells expressing Mrgpra1; format: cell-based; conditions: Mrgprs individually expressed in HEK293 cells
T1 construct: expressed in transfected cells; host or cells: HEK293
T1 sequence (Q91WW5 1-304): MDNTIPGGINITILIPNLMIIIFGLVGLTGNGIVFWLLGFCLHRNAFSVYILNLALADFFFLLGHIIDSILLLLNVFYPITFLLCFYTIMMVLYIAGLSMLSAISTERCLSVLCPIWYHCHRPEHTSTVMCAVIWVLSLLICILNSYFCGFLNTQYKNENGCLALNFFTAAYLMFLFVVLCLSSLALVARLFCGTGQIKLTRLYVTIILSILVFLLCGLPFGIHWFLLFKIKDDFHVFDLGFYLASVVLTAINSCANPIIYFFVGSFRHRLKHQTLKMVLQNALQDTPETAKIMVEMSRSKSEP
Protocol: (§1) Lamotrigine (LTG), allopurinol, carbamazepine and oxcarbazepine (all from Sigma) were prepared fresh on the day of the experiment. These drugs were dissolved into dimethyl sulfoxide (DMSO) first, and then were diluted at least 10000× into calcium imaging buffer before use. The final concentrations of drugs for each experiment were indicated in the corresponding figure legend.
(§2) In initial experiments, HEK293 cells were plated on 100 μg/ml poly-D-lysine coated glass cover slips, and transiently transfected with vector containing Mrgprs gene, after 24-48 hours of culture, cells were loaded with Fura 2-acetomethoxy ester calcium indicator (0.5 μM, Molecular Probes) along with pluronic F-127 dispersing agent (0.1%, Molecular Probes) for 30 minutes in the dark at 37° C., then washed with calcium imaging buffer (CIB; NaCl 125 mM, KCl 3 mM, CaCl2 2.5 mM, MgCl2 0.6 mM, HEPES 10 mM, glucose 20 mM, NaHCO3 1.2 mM, sucrose 20 mM, brought to pH 7.4 with NaOH). Drugs were added to Fura 2-loaded cells and intracellular free calcium was measured using 340 nm and 380 nm excitation wavelengths with emission measured at 520 nm with a microscope based imaging system (Nikon Eclipse TE200). Changes in emission fluorescence ratios at 340/380 nm excitation were continuously monitored at 1 second intervals. Later, experiments were performed using Mrgpra1-GFP, Mrgprc11-GFP and MRGPRX4-GFP stable cell lines to confirm the findings obtained from the transiently expressing cells.
(§3) Mrgpra1 or both wild-type and mutant MRGPRX4 stably expressed HEK cells were plated overnight in 100 μl culture media on 96-well plates. […] After 1 hour of incubation at 37° C., cells were allowed to recover for 10 minutes in the dark at room temperature prior to performing intracellular calcium mobilization assay in a FLEXSTATION® multi-mode plate reader (Molecular Devices). […] Responses were determined by subtracting the minimum signal (at the basal level before adding the drug) from the maximum signal (obtained after stimulating with the drug). […]

[4] = system: 129S1/SvImJ mice; assay: SJS/TEN mouse model (daily oral gavage of causative drug); format: in vivo; conditions: mouse, in vivo
Protocol: Eight-to-ten week old male mice were orally gavaged with either causative drugs (LTG, allopurinol, oxcarbazepine) suspended in saline or saline once daily. The dosage was based on milligrams per kilogram of animal's body weight as indicated (for example, LTG 50 mg kg^−1 body weight). Skin, eyes, and mucosa, survival, body weight, physical and gross appearances (particularly on the eyes, mucosa and skins) were monitored every day.
The animals were deeply anesthetized with pentobarbital and transcardially perfused with 20 ml 0.1 M cold PBS (pH 7.4) followed with 25 ml of cold 4% paraformaldehyde (PFA). Paw skin, eyelid, spleen, lymph nodes were dissected out. postfixed in 4% PFA for more than two hours, and cryoprotected in a 20% followed by 30% sucrose solution for 24 hours each at 4° C. Tissue samples were embedded in the optimal cutting temperature (OCT) and frozen before being serially cut into 20 μm sections and placed onto slides. Hematoxylin and eosin (H&E) staining was performed using standard procedures according to the manufacturer's instruction VITROVIEW™ H&E Stain Kit). To quantify amount of apoptotic cells, terminal deoxynucleotidyl transferase dUTP nick end labeling (TUNEL) assay, a method for detecting DNA fragmentation that results from apoptotic cells by labeling the terminal end of nucleic acids, was performed by following the protocol of Apo-BrdU DNA Fragmentation Assay Kit (Biovision). To estimate the total cell number in tissue, all nuclei were stained with propidium iodide. Digital photographs were captured under confocal fluorescent microscopy at x200 magnification (Zeiss LSM 700). The number of TUNEL-positive nuclei were counted and reported as a percentage over the number of total nuclei observed in the skin's epidermis layer.

[5] = biological target: MRGPRX4 (Homo sapiens, UniProt Q96LA9); assay: Ca2+ imaging / EC50 determination in HEK293 cells expressing MRGPRX4; format: cell-based; parameters: expressed in transfected cells; conditions: Mrgprs individually expressed in HEK293 cells
Sequence of MRGPRX4 (Q96LA9 whole entry): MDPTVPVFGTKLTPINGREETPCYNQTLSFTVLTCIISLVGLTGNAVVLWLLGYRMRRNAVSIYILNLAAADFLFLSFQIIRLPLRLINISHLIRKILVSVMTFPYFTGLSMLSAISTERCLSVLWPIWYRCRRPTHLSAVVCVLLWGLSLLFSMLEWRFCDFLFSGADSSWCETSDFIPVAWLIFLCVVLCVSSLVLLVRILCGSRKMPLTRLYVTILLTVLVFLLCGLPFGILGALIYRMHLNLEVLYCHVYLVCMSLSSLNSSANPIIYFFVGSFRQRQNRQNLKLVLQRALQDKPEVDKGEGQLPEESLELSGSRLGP
Protocol: as §1, §2, §3

S=C=Nc1cccc2ccccc12 [ANIT, α-naphthyl isothiocyanate]
reduction in scratching bouts, Cluster KO versus WT littermates ([1]; 25 mg/kg ANIT per os daily): ~46%

CC(C)(C)OC(=O)N[C@@H](CCC(N)=O)C(=O)N[C@H](Cc1cn(C=O)c2ccccc12)C(=O)N[C@@H](Cc1ccccc1)C(=O)OCc1ccccc1 [QWF, BOC-GLN-D-(FORMYL)TRP-PHE-BENZYLESTER] (Boc-Gln-[dW](For)-Phe-OBn)
effect on pruritus associated with bilirubin ([2]; 0.25 mg/kg co-injected with bilirubin): significantly alleviated pruritus | effect on chloroquine-MRGPRA3 associated itch ([2]; co-injected with chloroquine): did not attenuate | scratching versus vehicle-treated animals ([1]; ANIT-dosed WT animals, 1 mg/kg i.p. thirty minutes prior to behavioral analysis): scratched significantly less | plasma levels of total bilirubin, AST, ALT, or ALP ([1]; mouse, in vivo, ip, 1 mg/kg): did not change

NC(=O)N1c2ccccc2CC(=O)c2ccccc21 [oxcarbazepine]
activation of mouse Mrgpra1 (Ca2+ imaging) [3]: specifically activated | eye manifestation [4]: can also induce eye manifestation | activation of human MRGPRX4 (Ca2+ imaging) [5]: specifically activated

Reference: patent publication US11442059B2, “Method for treating a chronic itch condition by administering small molecule MrgprX4 antagonists” (The Johns Hopkins University, priority 2017, dated 2022)
